Results on three molecules are retold here after patent US6956033B2, “3,4-dihydroisoquinoline derivative compound and a pharmaceutical agent comprising it as active ingredient” (Ono Pharmaceutical Co., Ltd., priority 2000, dated 2005).

pIC50: −log10 of the molar value.

The target in the assay is T1, Human CB2 receptors (Homo sapiens, UniProt P34972).
T1 construct: expressed in transfected cells; host or cells: CHO cells
The assay is described as follows: In vitro signaling assay: inhibition of forskolin-induced cAMP production in human CB2 receptor expressing CHO cells. As to conditions: inhibition of 10 μM forskolin-induced cAMP production, human CB2 receptors expressed CHO cells, cAMP EIA. The class given is cell-based. As for the experimental part: It was confirmed by the following experiment that the compound of formula (I) of the present invention has CB2 receptor agonist activity.
Method for the Experiment:
Human CB2 receptors expressed CHO cells were used for the assays. Cells were dispersed seeded in 96-well plates in a density of 5×10^4 cells/well, and were subjected to experiment the next day. After removing the culture media 1 mM isobutylmethylxanthine (IBMX) solution was added, and cells were incubated for 10 minutes at room temperature. Next, a mixture of 10 μM forskolin and the compound of the present invention was added. After additional incubation for 15 minutes at room temperature, the culture supernatant was discarded and 200 μl of lysis reagent (attached to a cAMP EIA) was added. The amounts of cAMP of the lysate were determined by a cAMP EIA kit (Amersham) under conditions of the forskolin-induced cAMP production. The compound of the present invention was dissolved in DMSO and the solution was diluted to adjust the final concentration of DMSO to 0.1%. IC50 values were calculated from the inhibitory ratio of the compound of the present invention toward the amount of the forskolin-induced cAMP production. By the same experiment using CHO cells, it was confirmed that this inhibitory effect toward cAMP production by the compound was mediated via the human CB2 receptors.
(Cyclic AMP is a second messenger, typically raised through Gs and lowered through Gi signalling.)

T1 sequence (P34972 whole entry): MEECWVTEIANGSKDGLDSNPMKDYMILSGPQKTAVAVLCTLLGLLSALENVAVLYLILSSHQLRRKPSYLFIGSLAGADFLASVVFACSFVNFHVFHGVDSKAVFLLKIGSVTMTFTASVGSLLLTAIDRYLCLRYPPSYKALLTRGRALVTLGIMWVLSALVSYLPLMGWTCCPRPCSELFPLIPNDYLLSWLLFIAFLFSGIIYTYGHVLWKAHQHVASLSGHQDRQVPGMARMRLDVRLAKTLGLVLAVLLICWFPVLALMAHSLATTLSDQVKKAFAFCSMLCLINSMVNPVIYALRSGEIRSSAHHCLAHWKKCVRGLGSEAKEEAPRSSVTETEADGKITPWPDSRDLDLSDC

One may read the pIC50 as the negative decadic logarithm of the IC50, by convention in mol/L. Higher therefore signals a small IC50. The molecule `CC1(C)Cc2ccccc2/C(=C/C(=O)C2CCCCC2)N1` [compound 1] gave a pIC50 of 8.62. As for `CC1(C)Cc2ccccc2/C(=C/C(=O)C2CCCCCC2)N1` [1(11), (Z)-2-(3,3-dimethyl-3,4-dihydro-(2H)-isoquinolin-1-ylidene)-1-cycloheptylethan-1-one], the pIC50 was 9.40. The result for `O=C(/C=C1\NC2(CCOCC2)Cc2ccccc21)c1ccccc1` [1(33), (Z)-2-(spiro[3,4-dihydro-(2H)-isoquinolin-3,4′-3,4,5,6-tetrahydropyran]-1-ylidene)-1-phenylethan-1-one] reads 9.10.
